Measured values taken from ChEMBL document CHEMBL2380203, “Structure-activity relationship of cytochrome bc1 reductase inhibitor broad spectrum antifungal ilicicolin H” (Bioorg Med Chem Lett, 2013).
In brackets after ≈: the same amount, converted by molar mass.

Columns and labels:
Candida albicans = test: Antifungal activity against Candida albicans MY1055 assessed as growth inhibition after 24 hrs by liquid microdilution assay; format: functional; settings: MY1055, 24 h
[1] = Inhibition of Candida albicans MY1055 NADH:cytochrome bc1 reductase
[2] = Inhibition of rat liver NADH:cytochrome bc1 reductase

Row | SMILES | MIC (Candida albicans) [µg/mL] | IC50 [1] [µg/mL] | IC50 [2] [µg/mL]
1 | C/C=C/[C@@H]1[C@H]2C[C@@H](C)CC[C@@H]2C(C)=C[C@H]1C(=O)c1c(O)c(-c2ccc(OC(=O)CCCNC(=O)OC(C)(C)C)cc2)c[nH]c1=O | 0.125 (≈ 0.202 µM) | 0.004 (≈ 0.00646 µM) | > 1
2 | C/C=C/[C@@H]1[C@H]2C[C@@H](C)CC[C@@H]2[C@](C)(O)[C@H]2Oc3ncc(-c4ccc(O)cc4)c(O)c3C(=O)[C@@H]12 | > 5 | > 1 | 1 (≈ 2.22 µM)
3 | C/C=C/[C@@H]1[C@H]2C[C@@H](C)CC[C@@H]2[C@](C)(Br)[C@H]2Oc3ncc(-c4ccc(O)c(Br)c4)c(O)c3C(=O)[C@@H]12 | > 5 | > 1 | 1 (≈ 1.69 µM)
4 | C/C=C/[C@@H]1[C@H]2C[C@@H](C)CC[C@@H]2C(C)=C[C@H]1C(=O)c1c(O)c(-c2ccc(OC(=O)C/C=C/c3ccccc3)cc2)c[nH]c1=O | 0.312 (≈ 0.54 µM) | 0.02 (≈ 0.0346 µM) | 1.6 (≈ 2.77 µM)
5 | C/C=C/[C@@H]1[C@H]2C[C@@H](C)CC[C@@H]2C(C)=C[C@H]1C(=O)c1c(O)c(-c2ccc(OC(=O)c3ccoc3)cc2)c[nH]c1=O | 0.0625 (≈ 0.118 µM) | 0.0105 (≈ 0.0199 µM) | > 1
6 | C/C=C/[C@@H]1[C@H]2C[C@@H](C)CC[C@@H]2C(C)=C[C@H]1C(=O)c1c(O)c(-c2ccc(OCC#N)cc2)cn(CC#N)c1=O | 1 (≈ 1.95 µM) | 0.1 (≈ 0.195 µM) | 
7 | C/C=C/[C@@H]1[C@H]2C[C@@H](C)CC[C@@H]2C(C)=C[C@H]1C(=O)c1c(O)c(-c2ccc(OCC#N)cc2)c[nH]c1=O | 0.125 (≈ 0.265 µM) | 0.006 (≈ 0.0127 µM) | 1 (≈ 2.12 µM)
8 | C/C=C/[C@@H]1[C@H]2C[C@@H](COC(C)=O)CC[C@@H]2C(C)=C[C@H]1C(=O)c1c(O)c(-c2ccc(O)cc2)c[nH]c1=O | 0.5 (≈ 1.02 µM) | 0.0021 (≈ 0.00427 µM) | > 1.6
9 | C/C=C/[C@@H]1[C@H]2C[C@@H](COC(=O)CC)CC[C@@H]2C(C)=C[C@H]1C(=O)c1c(O)c(-c2ccc(OC(=O)CC)cc2)c[nH]c1=O | 0.125 (≈ 0.223 µM) | 0.01 (≈ 0.0178 µM) | > 0.8
10 | C/C=C/[C@@H]1[C@H]2C[C@@H](C)CC[C@@H]2C(C)=C[C@H]1C(=O)c1c(O)c(-c2ccc(O)cc2)cn(CC(=O)O)c1=O | > 5 | > 1 | 1 (≈ 2.03 µM)
11 | C/C=C/[C@@H]1[C@H]2C[C@@H](C)CC[C@@H]2C(C)=C[C@H]1C(=O)c1c(O)c(-c2ccc(OC(=O)CNC(=O)OCC3c4ccccc4-c4ccccc43)cc2)c[nH]c1=O | 0.125 (≈ 0.175 µM) | 0.006 (≈ 0.00842 µM) | 1 (≈ 1.4 µM)
12 | C/C=C/[C@H]1[C@@H]2C(=O)c3c(ncc(-c4ccc(O)cc4)c3O)O[C@@H]2C(C)=C2CC[C@H](C)C[C@@H]21 | > 1 | > 1 | 
13 | C/C=C/[C@@H]1[C@H]2C[C@@H](C)CC[C@@H]2C(C)=C[C@H]1C(=O)c1c(O)c(-c2ccc(O)cc2)cn(CC(N)=O)c1=O | 0.031 (≈ 0.0632 µM) | 0.04 (≈ 0.0815 µM) | 
14 | C/C=C/[C@@H]1[C@H]2C[C@@H](C)CC[C@@H]2C(C)=C[C@H]1C(=O)c1c(O)c(-c2ccc(OC)cc2)cn(C)c1=O | > 1 | 0.008 (≈ 0.0173 µM) | 
15 | C/C=C/c1c(C(=O)c2c(O)c(-c3ccc(O)cc3)c[nH]c2=O)cc(C)c2c1C[C@@H](C)CC2 | > 1 |  | 
16 | C/C=C/[C@@H]1[C@H]2C[C@@H](C)CC[C@@H]2C(C)=C[C@H]1C(=O)c1c(O)c(-c2ccc(O)cc2)cn(CC)c1=O | 0.312 (≈ 0.676 µM) |  | 
17 | C/C=C/[C@@H]1[C@H]2C[C@@H](C)CC[C@@H]2[C@](C)(I)[C@H]2Oc3ncc(-c4ccc(O)c(I)c4)c(O)c3C(=O)[C@@H]12 | > 5 |  | 
18 | C/C=C/[C@@H]1[C@H]2C[C@@H](C)CC[C@@H]2C(C)=C[C@H]1C(=O)c1c(OC)c(-c2ccc(OC)cc2)cn(C)c1=O | > 1 | 1 (≈ 2.1 µM) | 
